In patent US20140271716A1, “Intra-testicular Injection of Immunogens” (priority 2013, published 2014):

Key:
[1] = Zinc level in blood after intra-testicular injection of zinc acetate; settings: pigs; for Zinc Concentration in blood: intra-testicular 0.5 ml (74 mg/ml) each testis
[2] = Zinc level in blood after intramuscular injection of zinc acetate; settings: pigs, intramuscular 30 mg/kg

CC(=O)[O-].CC(=O)[O-].[Zn+2] [zinc acetate]
mean residence time ([1]; intra-testicular): ~60 h
time of second absorption phase after injection ([1]; intra-testicular): 24 h
Zinc Concentration in blood ([1]; 0 Min (taken as zero)): 0 μ mol/L
Zinc Concentration in blood ([1]; 30 Min): 8.44 μ mol/L
Zinc Concentration in blood ([1]; 1 hr.): 7.49 μ mol/L
Zinc Concentration in blood ([1]; 2 hr.): 5.65 μ mol/L
Zinc Concentration in blood ([1]; 3 hr.): 5.27 μ mol/L
Zinc Concentration in blood ([1]; 4 hr.): 4.96 μ mol/L
Zinc Concentration in blood ([1]; 6 hr.): 4.06 μ mol/L
Zinc Concentration in blood ([1]; 8 hr.): 4.43 μ mol/L
Zinc Concentration in blood ([1]; 12 hr.): 3.87 μ mol/L
Zinc Concentration in blood ([1]; 24 hr.): 4.43 μ mol/L
Zinc Concentration in blood ([1]; 48 hr.): 3.11 μ mol/L
Zinc Concentration in blood ([1]; 72 hr.): −0.36 μ mol/L
Zinc Concentration in blood ([1]; 96 hr.): −0.29 μ mol/L
Zinc Concentration in blood ([2]; 0 Min (physiological level)): 45.3 μ mol/L
Zinc Concentration in blood ([2]; 30 min): 194.08 μ mol/L
Zinc Concentration in blood ([2]; 1 hr.): 76.17 μ mol/L
Zinc Concentration in blood ([2]; 2 hr.): 67.4 μ mol/L
Zinc Concentration in blood ([2]; 3 hr.): 65.22 μ mol/L
Zinc Concentration in blood ([2]; 4 hr.): 62.8 μ mol/L
Zinc Concentration in blood ([2]; 6 hr.): 61.6 μ mol/L
Zinc Concentration in blood ([2]; 8 hr.): 60.8 μ mol/L
Zinc Concentration in blood ([2]; 12 hr.): 54.3 μ mol/L
Zinc Concentration in blood ([2]; 16 hr.): 48.7 μ mol/L
Zinc Concentration in blood ([2]; 24 hr.): 47.3 μ mol/L
Zinc Concentration in blood ([2]; 36 hr.): 44.5 μ mol/L
Zinc Concentration in blood ([2]; 48 hr.): 44.2 μ mol/L
